Where a name gives a salt, the structure may show the parent alone.
Experiments:
MC-3T3 cells = experiment: Flow cytometry of fluorescein intracellular delivery with diamond nanocone array; type: cell-based, Mouse; settings: fluorescein 1 mg/ml
Procedure: Mouse MC3T3-E1 pre-osteoblasts, which can differentiate into osteoblasts, were used in the present study. The cells were cultured at 37° C. with 5% carbon dioxide (CO2) and 95% humidified air in Dulbecco's Modified Eagle Medium (DMEM) (Gibco) supplemented with 10% fetal bovine serum (FBS) (Gibco). The medium was renewed every 2-3 days and confluent cells were subcultured through trypsinization.
Three groups of cells were studied. One group was untreated cells. Other two groups included the cells which were treated by smooth silicon substrate and diamond nanocone array. For treatment, a volume of […] MC-3T3 cell suspension was applied to the substrate with a speed of about 3 ms^−1 by a pipette (FIG. 16). After the application, the cell suspension was collected and pipetted to the substrate again with a similar speed. Such cell treatment procedure was repeated for 15 times. The same procedures were used in all experiments for enhanced intracellular delivery. Following cell treatment, cells were plated into 96-well microtiter plates. After 22 hours, morphology of each group of cells was observed by optical microscopy. After 24 hours, cell viability was determined by MTT assay.
Subsequently, the enhanced intracellular delivery capability of the diamond nanocone array was firstly assessed by investigating the fluorescence intensity of fluorescein sodium salt stain in treated cells by quantitative analysis through flow cytometry. MC-3T3 cells were harvested at a density of 10^4 cells/ml. Fluorescien was added to cell growth medium at a concentration of 1 mg/ml. After the addition of fluorescein, a volume of 1 ml of this cell suspension was treated with the same method as that described above. Two experiments were arranged in investigating the intracellular delivery of fluorescein sodium salt. In one experiment, the negative control was to apply cells to a smooth silicon substrate without the nanocone array. In the other experiment, untreated cells were used as the control (i.e. neither nanocone array nor smooth Si substrate was used). After 15 min of staining, the suspensions of control and treated group cells were pelleted by centrifugation (Spectrafuge™ 16 M, Labnet) at 6000 rpm for 3 min, after which the supernatants were removed. The cell pellets were washed by 1 mL of phosphate buffered saline (PBS) and then resuspended throughly. The cell suspensions were centrifuged again at 6000 rpm for 3 min, and the cell pelletes were washed by PBS for 3 times in total. Finally, the cell suspensions were prepared with a concentration of 10^4 cells in PBS and then immediately analysed using a flow cytometer (Becton DICKINSON, FACSCalibur cytometer) by counting 1×10^4 cells per sample. […]

A549 cells = experiment: Live-cell confocal imaging of luminescent iridium(III) complex delivery; type: cell-based
Procedure: In this embodiment, suspension with the subjects was applied to the nanoneedle array at a speed of about 3.0 m/s. After treatment with the nanooneedles, the cells were grown on a sterile glass coverslip for 19 hours followed by PBS washing and then investigated by fluorescence confocal microscopy. Negligible cell death was found under microscopy in the experiments. FIG. 12a is a representative image showing the intracellular delivery of the iridium(III) polypyridine complex to A549 cells. […] In comparison, FIG. 12b is the image of the control group in which the cells were incubated with the complex for 19 hours but not treated with nanoneedles before incubation. FIGS. 12a and 12b were taken under the same microscope settings. […] (The arrows in the figures indicate the cells in which direct nucleic delivery of the luminescent complex is achieved with diamond needles treatment. The scale bars in FIGS. 12a), b), e) and f) indicate 25 μm).
The fluorescence intensities in the cytoplasm of the two selected cells were normalized to be the same value and the fluorescence intensities in the nucleus of the two cells were compared. The representative results are shown in FIG. 12c for a nanoneedle-treated cell and FIG. 12d for a cell without treatment. […] For the nanoneedle treated group, unexpectedly, a number of cells in which the fluorescence signal was almost evenly distributed in the entire cells were found. For this reason, it was not apparent to locate their nuclei (indicated by the arrows in FIGS. 12e and 12f).
A549 cells were maintained as exponentially growing cultures in a Dulbecco's modified Eagle's medium (DMEM) with 10% FBS and 1% penicillin/streptomycin at 37° C. The cells were trypsinized and suspended in DMEM medium. There are about 6×10^4 cells in one milliliter. Iridium(III) polypyridine complex was added to the cell medium at a concentration of 0.1 μM. […]
A549 cell suspension in medium/DMSO (99:1, v/v) containing [Ir(ppy)2(bpy-Et)](PF6) (0.1 μM) was prepared. […] The emission was measured using a long-pass filter at 532 nm.

NIH3T3 fibroblast cells = experiment: Cytosolic delivery into fibroblast cells by diamond nanoneedle array under centrifugation (live/dead calcein AM/EthD-1 staining); type: cell-based
Text: This kit has been widely used to characterize cell viability and cytotoxicity. In the assays, with application of nanoneedle array to cells, the membrane-permeant calcein AM enters cells and is cleaved by esterases in live cells to yield cytoplasmic green fluorescence; while the membrane-impermeant ethidium homodimer-1 (EthD-1) labels nucleic acids of membrane-disrupted cells with red fluorescence. […] In comparison, dead cells were labeled with only red fluorescence (FIG. 5). FIG. 5a are representative images of fibroblast cells after successful cytosolic delivery of EthD-1; FIG. 5b is a chart showing quantification of delivery efficiency; and FIG. 5c is a chart showing quantification of cell viability after being treated with nanoneedles arrays; all at a scale bar of 100 um.
In an embodiment, the penetration and subsequent disruption of cell membrane by nanoneedles was precisely controlled by centrifugation-induced supergravity to achieve reliable, highly efficient, diffusion based cytosolic delivery. In a specific embodiment, in order to optimize the force applied onto the cell membranes through nanoneedles, the whole setup (cell culture plus nanoneedle array) was maintained in supergravity by centrifugation at a series of speeds from 300 rpm (12.8 g, RCF) to 1000 rpm (142 g). […]

[1] = tested on: primary hippocampal neurons; experiment: Cytosolic delivery into primary hippocampal neurons by diamond nanoneedle array under centrifugation (live/dead staining); type: cell-based; settings: around 300 rpm (12.8 g)
Procedure: Intracellular delivery into post-mitotic cells, such as neuron, has always been challenging. […] Compared with fibroblast cells, neurons are more vulnerable to membrane disruption induced by nanoneedle arrays. Generally, a relatively lower speed would be required to achieve similar delivery efficiency as in fibroblast cells (FIG. 6). […] Therefore, a centrifuging speed of 300-400 rpm was selected for following experiments with primary neurons. FIG. 6a are representative images of fibroblast cells after successful cytosolic delivery of EthD-1; FIG. 6b is a chart showing quantification of delivery efficiency; and FIG. 6c is a chart showing quantification of cell viability after being treated with nanoneedles arrays; all at a scale bar of 100 um.
Hippocampal neuron cultures were prepared following the method previously described. Briefly, dissociated neurons were prepared from hippocampi dissected from E18 Sprague Dawley rats by enzymatic treatment with papain (Sigma) for 30 min at 37° C. followed by trituration with a 1 ml pipette tip. Before seeding neurons, all substrates were pre-coated with polylysine (Sigma, 100 μg ml^−1) and laminin (Invitrogen, 10 μg ml^−1). Neuron cells were treated with nanoneedle arrays at 6-7 days in vitro (DIV).
Nanoneedle array was placed to float on culture medium with the needles facing toward cells. […]

In the case of O=C1OC2(c3ccc(O)cc3Oc3cc(O)ccc32)c2ccccc21 [fluorescein sodium salt], the “M3, percentage of cells with fluorescence intensity 1×10^2 to 1×10^3” value (MC-3T3 cells; FIG. 20, cells treated with the nanocone array) is reported as 73.5%, the “M2, percentage of cells with fluorescence intensity 1×10^1 to 1×10^2” value (MC-3T3 cells; FIG. 20, control cells applied to smooth Si substrate) is reported as 63.1% and the “M3, percentage of cells with fluorescence intensity 1×10^2 to 1×10^3” value (MC-3T3 cells; FIG. 21, cells treated with the nanocone array) is reported as 62.4%. The “M2, percentage of cells with fluorescence intensity 1×10^1 to 1×10^2” value (MC-3T3 cells; FIG. 21, untreated sample (no nanocone, no Si substrate)) was 70.0%.

For “[Ir(ppy)2(bpy-Et)](PF6) [iridium(III) polypyridine complex]”, the fluorescence signal (A549 cells; A549 cells, 0.1 μM, 19-hour incubation, not treated with nanoneedles) was “extremely weak”, the intracellular localization (A549 cells; A549 cells, 0.1 μM, nanoneedle treated, 19 hours) was “mainly localized in the perinuclear region” and the nuclear uptake (A549 cells; by diffusion, without nanoneedles) was “negligible nuclear uptake”.

For ethidium homodimer-1 [EthD-1], the “cytosolic delivery efficiency of EthD-1” value (NIH3T3 fibroblast cells; centrifugation 300 rpm) was about 5%, the “cytosolic delivery efficiency of EthD-1” value (NIH3T3 fibroblast cells; centrifugation 500 rpm or above) was about 80% and the “delivery efficiency of EthD-1” value [1] was “about 80%”.

— patent publication US9394547B2, “Method and apparatus for delivery of molecules to cells” (CITY UNIVERSITY OF HONG KONG, priority 2012, dated 2016)
